{"source": "patent US20100285156A1", "about": "“COMPOSITION FOR PREVENTING AND TREATING METABOLIC DISEASES COMPRISING THE EXTRACT OF LYSIMACHIAE FOENUM-GRAECI HERBA” (BRNSCIENCE CO., LTD, priority 2007, published 2010)", "key": {"[1]": {"tested_on": "DIO (Diet Induced-Obesity) mice", "experiment": "Blood metabolic disease marker levels in diet-induced obesity (DIO) mice", "type": "in vivo, C57BL/6 male mice", "experimental": "Seven-week-old C57BL/6 male mice (obtained from Coretec Inc.) were bred in an animal facility where breeding conditions of temperature (20±1° C.), humidity (50±10%), light/dark cycle (12 hours), light intensity (150 to 300 Lux), and ventilation (10 to 20 times/hr) were maintained. Solid feed (obtained from Folas International Inc.) was freely supplied to the mice, and city water was subjected to steam sterilization and then was freely fed to the mice as drinking water. After acclimation for one week, 60% Kcal solid feed (obtained from Research Diet Inc.) was supplied to the mice, and the Lysimachiae Foenum-Graeci Herba extract was orally administered to the mice for 42 days in an amount of 30, 100, and 300 mg/kg/day. Sibutramine was administered to a positive control group in an amount of 10 mg/kg/day, and 0.5% MC (methyl cellulose) was administered to a negative control group in the same amount. The mice to which the substances were administered for six weeks were fasted for one day, and then were killed using CO2 gas. Blood gathered from the mouse abdominal vena cava was put into EDTA tubes and stored in ice, and then plasma obtained by centrifugation at 3000 rpm for 10 minutes was analyzed using a biochemical auto analyzer (AU400, Olympus, Japan). Also, organs extracted from the mice were immediately frozen by putting them into liquid nitrogen, were stored in a low-temperature refrigerator (−70° C.), and were histologically analyzed.\nThe contents of triglycerides and cholesterol in the extracted liver tissues were also measured, the results of which are given in FIG. 2."}, "[2]": {"tested_on": "ICR male mice given corn oil", "experiment": "Antihyperlipidemic activity, corn oil loaded mice", "type": "in vivo", "settings": "plasma, 10 mg/kg, control drug, corn oil 1 g/kg", "experimental": "Five-week-old ICR male mice (obtained from Central Lab. Animal Inc.) were bred in an animal facility where breeding conditions of temperature (20±1° C.), humidity (50±10%), light/dark cycle (12 hours), light intensity (150 to 300 Lux), and ventilation (10 to 20 times/hr) were maintained. Solid feed for laboratory animals (obtained from Cargill Agri Purina Inc.) was freely supplied to the mice, and city water was subjected to steam sterilization and then was freely fed to the mice as drinking water. After acclimation for one week, the […] Herba extract was orally administered to eight mice per group in a concentration of 100 mg/kg, and a saline was orally administered to the control group instead of the extract."}, "[3]": {"settings": "plasma, high-fat diet, 10 mg/kg/day, six weeks"}, "[4]": {"settings": "positive control group, summary of Table 1"}}}
{"molecule": "CC(C)CC(N(C)C)C1(c2ccc(Cl)cc2)CCC1", "note": "(stereo not shown) [Sibutramine]", "values": [{"measurement": "ALT (Alanine aminotransferase)", "setting": "[1]; [3]", "value": "64 ± 15.1", "unit": "IU/L"}, {"measurement": "AST (Aspartate aminotransferase)", "setting": "[1]; [3]", "value": "172.33 ± 58.4", "unit": "IU/L"}, {"measurement": "CHO (Cholesterol)", "setting": "[1]; [3]", "value": "187.33 ± 15", "unit": "mg/dL"}, {"measurement": "GLU (Glucose)", "setting": "[1]; [3]", "value": "182.66 ± 27.3", "unit": "mg/dL"}, {"measurement": "TG (Triglyceride)", "setting": "[1]; [3]", "value": "91.33 ± 17.0", "unit": "mg/dL"}, {"measurement": "ALT and glucose levels", "setting": "[1]; [4]", "value": "meaningfully reduced"}, {"measurement": "AST and cholesterol levels", "setting": "[1]; [4]", "value": "not changed"}, {"measurement": "triglyceride level", "setting": "[1]; [4]", "value": "rather increased"}]}
{"molecule": "CCCCCCCCCCC[C@@H](C[C@@H]1OC(=O)[C@H]1CCCCCC)OC(=O)[C@H](CC(C)C)NC=O", "note": "[Xenical]", "values": [{"measurement": "CHO (Cholesterol)", "setting": "[2]", "value": "148.83 ± 8.26", "unit": "mg/dL"}, {"measurement": "TG (Triglyceride)", "setting": "[2]", "value": "311.17 ± 45.56", "unit": "mg/dL"}]}
